Source: patent US5840718A, “22-epimeric-1,25-dihydroxy-16,22,23-triene-cholecalciferol” (Hoffmann-La Roche Inc., priority 1997, dated 1998)
Read-outs that look alike come from different tables or passages of the source.

Key:
HL-60 cells = test: Induction of HL-60 Cell Differentiation (NBT reduction); format: cell-based; conditions: 3 days, relative to maximal differentiation with 100-1000 nM calcitriol, mean of 3 wells, 4320 min, read-out: ED50, concentration leading to 50% of maximal differentiation
Description: Induction of HL-60 Cell Differentiation
The induction of differentiation of HL-60 cells was assayed by measuring their oxidative burst potential via the reduction of nitrobluetetrazolium (NBT).
HL-60 cells (30,000 cells in 90 μl of supplemented RPMI medium) were seeded into flat-bottomed microliter wells. Immediately after seeding, 10 μl of test compounds listed below in Table II diluted in supplemented RPMI medium were added to the wells to yield final concentrations of between 10^-11 and 10^-6 M (starting from stock solutions of 10^-2 M in ethanol, stored at -20° C. and protected from light). After 3 days, medium was removed from the wells with a multichannel pipette and replaced with 100 μl of NBT solution (1 mg/ml in phosphate buffered saline with 200 nM phorbol myristate acetate). Following an additional hour incubation at 37° C. the NBT solution was removed and 100 μl of 10% sodium dodecyl sulfate in 0.01N HCl was added. The amount of the reduced NBT was quantified photometrically at 540 nm using an automated plate reader. The mean of 3 wells was calculated. […] Values were expressed as percent of maximal differentiation achieved with 100-1000 nM calcitriol in the same experiment.

Sebaceous cells = test: Inhibition of Sebaceous Cell Proliferation; format: cell-based, human; conditions: read-out: ED50, amount of compound necessary to inhibit the proliferation of the sebaceous cells by 50%
Description: Inhibition of Sebaceous Cell Proliferation
Sebaceous cells were isolated from adult human sebaceous glands, derived from facial skin removed during cosmetic surgery. This method is described in an article by Doran et al. in J. Invest. Dermatol. 96:341-348 (1991).
The cells were cultured in Iscove's medium containing 10% fetal calf-serum and 4 μg/ml dexamethasone on a layer of growth-arrested 3T3 mouse fibroblasts.
Cells were plated in medium without the test compound and then given the compound in fresh medium 24-48 hours after the initial plating. The cultures were given fresh medium, containing the test compound, every 48 hours. On the day of harvesting, the cultures were rinsed with 0.03% ethylenediamine tetraacetic acid (EDTA) in phosphate buffered saline (PBS), to remove only the 3T3 fibroblasts. The remaining sebocyte colonies were incubated in 0.05% trypsin/0/03% EDTA to create a single cell suspension of sebocytes. The cells were suspended, mixed vigorously to prepare a single cell suspension, and counted in a hemocytometer.
All compounds were handled in the following manner. Stock solutions were made up as 10-^2 M solutions in degassed 100% ethanol and stored at -20° C. in the dark. Solutions were never used after storage of more than a month. During experimental use the solutions, which had been aliquoted, were thawed once and used by diluting directly into complete medium to the appropriate concentration.
The results are summarized in Table III below as the amount of compound necessary to inhibit the proliferation of the sebaceous cells by 50% (ED50) in μM as compared to a control, vehicle treated only, culture.

[1] = test system: γ-Interferon Release in Human T-cells; test: Inhibition of γ-Interferon Release in Human T-cells (ELISA); format: cell-based; conditions: PHA-stimulated human lymphocytes, IFN-γ by ELISA, days 3 and 4, read-out: IC50, concentration leading to 50% of control values (IFN-γ)
Description: Inhibition of γ-Interferon Release in Human T-cells
(§1) Mononuclear cells were isolated from venous blood of healthy donors by centrifugation of buffy coat leucocytes atop Ficoll-Paque. […] 100 μl of this cell suspension were seeded into flat-bottom microtiter wells and stimulated with 1 μg/ml of the T-cell specific mitogen phytohemagglutinine (PHA). Immediately after seeding, the test compounds listed below in Table IV were added to yield final concentrations of between 1×10^-11 M-1×10^-6 M. All tests were run in the quadruplicates.
On days 3 and 4, medium was removed from the wells and the content of IFN-γ was analyzed by ELISA. Values are expressed as percent of controls (samples without test compound).

Human T-cell = test: Inhibition of Human T-cell Proliferation (3H-thymidine); format: cell-based; conditions: PHA-stimulated human lymphocytes, 3H-thimidine after 3 and 4 days, read-out: IC50, concentration leading to 50% of control values (T-cell proliferation)
Description: Inhibition of Human T-cell Proliferation
as §1, with “[…]” for “μl”, “[…]” for “μg/ml”, “PHA.” for “the T-cell specific mitogen phytohemagglutinine (PHA).”, “V” for “IV”
After 3 and 4 days, ^3 H-thymidine (5 Ci/mmol) was added to wells at a concentration of […]. Cells were pulse-labeled for the last 6 hours of the growth period. Cells were then harvested on to a 96 well filter plate using a cell harvester. After drying at 40° C. under vacuum for 20-30 minutes, 20 μl of scintillor were added and the radioactivity bound to the filters was counted. Values are expressed as percent controls (samples without test compounds).

[2] = Calcium tolerance test in mice; format: in vivo; conditions: daily subcutaneous, 4 consecutive days, dose giving zero weight gain during 5 day treatment period
Excerpt: Calcium tolerance test in mice
Profound changes in calcium homeostasis strongly affect the weight development of mice.
Mice (25-30 g body weight) received daily subcutaneous administrations of the compound for 4 consecutive days. Body weight was registered just before and at the end of a […] treatment period. The "highest tolerated dose" (HTD) is the dose which results in zero weight gain during this treatment period.

HaCaT cell line = test: Inhibition of Keratinocyte Proliferation (3H-thymidine uptake, HaCaT cells); format: cell-based; conditions: Homo sapiens, 3H-thymidine incorporation, 6 days, read-out: IC50, concentration leading to 50% of control values

| Compound | EC50 (HL-60 cells) [nM] | IC50 (Sebaceous cells; adult human facial sebaceous cells, vs vehicle treated control, listed as 1α,25-Dihydroxy-16,22S,23-triene-cholecalciferol) [nM] | IC50 [1] [nM] | IC50 (Human T-cell) [nM] | HTD, highest tolerated dose [2] [mg/kg] | IC50 (Sebaceous cells; adult human facial sebaceous cells, vs vehicle treated control, listed as 1α,25-Dihydroxy-16,22R,23-triene-cholecalciferol) [nM] | IC50 (HaCaT cell line) [nM] | IC50 (Sebaceous cells; Homo sapiens) [nM] | IC50 ([1]; T-cell) [nM] | IC50 (Human T-cell; T-cell) [nM] |
| --- | --- | --- | --- | --- | --- | --- | --- | --- | --- | --- |
| C=C1/C(=C\C=C2/CCC[C@]3(C)C([C@H](C)C=C=CC(C)(C)O)=CC[C@@H]23)C[C@@H](O)C[C@@H]1O [1,25-Dihydroxy-16,22S,23-triene-cholecalciferol] [listing 1 of 2 here] | 4.8 | 10 | 3 | 6 | 0.05 | – | – | – | – | – |
| C=C1/C(=C\C=C2/CCC[C@]3(C)C([C@H](C)C=C=CC(C)(C)O)=CC[C@@H]23)C[C@@H](O)C[C@@H]1O [1,25-Dihydroxy-16,22R,23-triene-cholecalciferol] | 0.22 | – | 0.05 | 0.55 | 0.0025 | 1 | – | – | – | – |
| C=C1/C(=C\C=C2/CCC[C@]3(C)C([C@H](C)C=C=CC(C)(C)O)=CC[C@@H]23)C[C@@H](O)C[C@@H]1O [1,25-Dihydroxy-16,22S,23-triene-cholecalciferol] [listing 2 of 2 here] | – | – | – | – | – | – | 40 | – | – | – |
| C=C1/C(=C\C=C2/CCC[C@]3(C)[C@@H]([C@H](C)CCCC(C)(C)O)CC[C@@H]23)C[C@@H](O)C[C@@H]1O [1,25-Dihydroxy-cholecalciferol, reference compound] | – | – | – | – | – | – | 55 | 50 | 0.8 | 10 |
